Where two headings read alike, the source gives them in different places. Where a SMILES comes first, the peptide text is derived from it. Bridges are numbered along the chain shown (N, C = ends). [ ]: non-standard residue; d: D form. Phe(3,4,5-F3) = N[C@@H](Cc1cc(F)c(F)c(F)c1)C(=O)O; d(cisHyp) = O=C(O)[C@H]1C[C@@H](O)CN1; NMeF = CN[C@@H](Cc1ccccc1)C(=O)O; NMeNle = CCCC[C@H](NC)C(=O)O; Orn = NCCC[C@H](N)C(=O)O; Dab = NCC[C@H](N)C(=O)O; Dap = NC[C@H](N)C(=O)O
Molecular target: T1, Human PD-L1/PD-1 (Homo sapiens, UniProt Q9NZQ7)
T1 construct: TVMV protease cleavage site (C); made in house; host or cells: HEK293T cells
T1 sequence (Q9NZQ7 with tags, fused parts or gaps): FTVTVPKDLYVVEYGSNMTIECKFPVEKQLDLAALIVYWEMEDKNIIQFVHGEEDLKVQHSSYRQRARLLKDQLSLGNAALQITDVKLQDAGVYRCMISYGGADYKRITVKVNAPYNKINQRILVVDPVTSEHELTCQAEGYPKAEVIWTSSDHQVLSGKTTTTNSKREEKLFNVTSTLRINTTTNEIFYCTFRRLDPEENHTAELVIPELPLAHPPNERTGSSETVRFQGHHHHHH
Assay: HTRF Human PD-L1/PD-1 binding assay (PD-1-Ig/PD-L1-His)
Settings: PD-L1-His 10 nM, PD-1-Ig 20 nM
Outline: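 Inhibitors were preincubated 15 min with human PD-L1(18-239)-His (10 nM final), then PD-1(25-167)-Ig (20 nM final) was added for 15 min in dPBS/0.1% BSA/0.05% Tween-20. Eu-cryptate anti-Ig (1 nM) and APC anti-His (20 nM) were added; 665/620 nm ratio read after 30 min.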

[1] = class symbol, read-out: HTRF Human PD-L1/PD-1 Binding Assay IC50 Range

| Compound | IC50 [1] | IC50 (read-out: HTRF Human PD-L1/PD-1 Binding Assay IC50) |
| --- | --- | --- |
| CCCC[C@H]1C(=O)N2C[C@H](O)C[C@@H]2C(=O)N[C@@H](CC(=O)O)C(=O)N[C@@H](C(C)C)C(=O)N(C)[C@@H](Cc2ccccc2)C(=O)N[C@@H](CCC(=O)O)C(=O)N2C[C@H](O)C[C@@H]2C(=O)N[C@@H](Cc2c[nH]c3ccccc23)C(=O)N[C@@H](Cc2ccc(O)cc2)C(=O)N[C@@H](CCCCN)C(=O)N[C@H](C(=O)NCC(N)=O)CSCC(=O)N[C@@H](Cc2cc(F)c(F)c(F)c2)C(=O)N(C)[C@@H](Cc2ccccc2)C(=O)N1C [Example 9331] ({CH2CO}-[Phe(3,4,5-F3)][NMeF][NMeNle][d(cisHyp)]DV[NMeF]E[d(cisHyp)]WYKCG-NH2; thioether N-13) | 1 to 9.9 nM | – |
| CCCC[C@H]1C(=O)N2C[C@H](O)C[C@@H]2C(=O)N[C@@H](CC(=O)O)C(=O)N[C@@H](C(C)C)C(=O)N(C)[C@@H](Cc2ccccc2)C(=O)N[C@@H](CCC(=O)O)C(=O)N2C[C@H](O)C[C@@H]2C(=O)N[C@@H](Cc2c[nH]c3ccccc23)C(=O)N[C@@H](Cc2ccc(O)cc2)C(=O)N[C@@H](CCCN)C(=O)N[C@H](C(=O)NCC(N)=O)CSCC(=O)N[C@@H](Cc2cc(F)c(F)c(F)c2)C(=O)N(C)[C@@H](Cc2ccccc2)C(=O)N1C [Example 9332] ({CH2CO}-[Phe(3,4,5-F3)][NMeF][NMeNle][d(cisHyp)]DV[NMeF]E[d(cisHyp)]WY[Orn]CG-NH2; thioether N-13) | 10 to 99.9 nM | – |
| CCCC[C@H]1C(=O)N2C[C@H](O)C[C@@H]2C(=O)N[C@@H](CC(=O)O)C(=O)N[C@@H](C(C)C)C(=O)N(C)[C@@H](Cc2ccccc2)C(=O)N[C@@H](CCC(=O)O)C(=O)N2C[C@H](O)C[C@@H]2C(=O)N[C@@H](Cc2c[nH]c3ccccc23)C(=O)N[C@@H](Cc2ccc(O)cc2)C(=O)N[C@@H](CCN)C(=O)N[C@H](C(=O)NCC(N)=O)CSCC(=O)N[C@@H](Cc2cc(F)c(F)c(F)c2)C(=O)N(C)[C@@H](Cc2ccccc2)C(=O)N1C [Example 9333] ({CH2CO}-[Phe(3,4,5-F3)][NMeF][NMeNle][d(cisHyp)]DV[NMeF]E[d(cisHyp)]WY[Dab]CG-NH2; thioether N-13) | 10 to 99.9 nM | – |
| CCCC[C@H]1C(=O)N2C[C@H](O)C[C@@H]2C(=O)N[C@@H](CC(=O)O)C(=O)N[C@@H](C(C)C)C(=O)N(C)[C@@H](Cc2ccccc2)C(=O)N[C@@H](CCC(=O)O)C(=O)N2C[C@H](O)C[C@@H]2C(=O)N[C@@H](Cc2c[nH]c3ccccc23)C(=O)N[C@@H](Cc2ccc(O)cc2)C(=O)N[C@@H](CN)C(=O)N[C@H](C(=O)NCC(N)=O)CSCC(=O)N[C@@H](Cc2cc(F)c(F)c(F)c2)C(=O)N(C)[C@@H](Cc2ccccc2)C(=O)N1C [Example 9334] ({CH2CO}-[Phe(3,4,5-F3)][NMeF][NMeNle][d(cisHyp)]DV[NMeF]E[d(cisHyp)]WY[Dap]CG-NH2; thioether N-13) | 10 to 99.9 nM | – |
| CCCC[C@H]1C(=O)N2C[C@H](O)C[C@@H]2C(=O)N[C@@H](CC(=O)O)C(=O)N[C@@H](C(C)C)C(=O)N(C)[C@@H](Cc2ccccc2)C(=O)N[C@@H](CCC(=O)O)C(=O)N2C[C@H](O)C[C@@H]2C(=O)N[C@@H](Cc2c[nH]c3ccccc23)C(=O)N[C@@H](Cc2ccc(O)cc2)C(=O)N[C@@H](CCC(=O)O)C(=O)N[C@H](C(=O)NCC(N)=O)CSCC(=O)N[C@@H](Cc2cc(F)c(F)c(F)c2)C(=O)N(C)[C@@H](Cc2ccccc2)C(=O)N1C [Example 9335] ({CH2CO}-[Phe(3,4,5-F3)][NMeF][NMeNle][d(cisHyp)]DV[NMeF]E[d(cisHyp)]WYECG-NH2; thioether N-13) | 10 to 99.9 nM | – |
| CCCC[C@H]1C(=O)N2C[C@H](O)C[C@@H]2C(=O)N[C@@H](CC(=O)O)C(=O)N[C@@H](C(C)C)C(=O)N(C)[C@@H](Cc2ccccc2)C(=O)N[C@@H](CCC(=O)O)C(=O)N2C[C@H](O)C[C@@H]2C(=O)N[C@@H](Cc2c[nH]c3ccccc23)C(=O)N[C@@H](Cc2ccc(O)cc2)C(=O)N[C@@H](CC(=O)O)C(=O)N[C@H](C(=O)NCC(N)=O)CSCC(=O)N[C@@H](Cc2cc(F)c(F)c(F)c2)C(=O)N(C)[C@@H](Cc2ccccc2)C(=O)N1C [Example 9336] ({CH2CO}-[Phe(3,4,5-F3)][NMeF][NMeNle][d(cisHyp)]DV[NMeF]E[d(cisHyp)]WYDCG-NH2; thioether N-13) | 10 to 99.9 nM | – |
| CCCC[C@H]1C(=O)N2C[C@H](O)C[C@@H]2C(=O)N[C@@H](CC(=O)O)C(=O)N[C@@H](C(C)C)C(=O)N(C)[C@@H](Cc2ccccc2)C(=O)N[C@@H](CCC(=O)O)C(=O)N2C[C@H](O)C[C@@H]2C(=O)N[C@@H](Cc2c[nH]c3ccccc23)C(=O)N[C@@H](Cc2ccc(O)cc2)C(=O)N[C@@H](CCC(N)=O)C(=O)N[C@H](C(=O)NCC(N)=O)CSCC(=O)N[C@@H](Cc2cc(F)c(F)c(F)c2)C(=O)N(C)[C@@H](Cc2ccccc2)C(=O)N1C [Example 9337] ({CH2CO}-[Phe(3,4,5-F3)][NMeF][NMeNle][d(cisHyp)]DV[NMeF]E[d(cisHyp)]WYQCG-NH2; thioether N-13) | 10 to 99.9 nM | – |
| CCCC[C@H]1C(=O)N2C[C@H](O)C[C@@H]2C(=O)N[C@@H](CC(=O)O)C(=O)N[C@@H](C(C)C)C(=O)N(C)[C@@H](Cc2ccccc2)C(=O)N[C@@H](CCC(=O)O)C(=O)N2C[C@H](O)C[C@@H]2C(=O)N[C@@H](Cc2c[nH]c3ccccc23)C(=O)N[C@@H](Cc2ccc(O)cc2)C(=O)N[C@@H](CC(N)=O)C(=O)N[C@H](C(=O)NCC(N)=O)CSCC(=O)N[C@@H](Cc2cc(F)c(F)c(F)c2)C(=O)N(C)[C@@H](Cc2ccccc2)C(=O)N1C [Example 9338] ({CH2CO}-[Phe(3,4,5-F3)][NMeF][NMeNle][d(cisHyp)]DV[NMeF]E[d(cisHyp)]WYNCG-NH2; thioether N-13) | 1 to 9.9 nM | – |
| CCCC[C@H]1C(=O)N2C[C@H](O)C[C@@H]2C(=O)N[C@@H](CC(=O)O)C(=O)N[C@@H](C(C)C)C(=O)N(C)[C@@H](Cc2ccccc2)C(=O)N[C@@H](CC(=O)O)C(=O)N2C[C@H](O)C[C@@H]2C(=O)N[C@@H](Cc2c[nH]c3ccccc23)C(=O)N[C@@H](Cc2ccc(O)cc2)C(=O)N[C@@H](CCCCN)C(=O)N[C@H](C(=O)NCC(N)=O)CSCC(=O)N[C@@H](Cc2cc(F)c(F)c(F)c2)C(=O)N(C)[C@@H](Cc2ccccc2)C(=O)N1C [Example 9345] ({CH2CO}-[Phe(3,4,5-F3)][NMeF][NMeNle][d(cisHyp)]DV[NMeF]D[d(cisHyp)]WYKCG-NH2; thioether N-13) | 1 to 9.9 nM | – |
| CCCC[C@H]1C(=O)N2C[C@H](O)C[C@@H]2C(=O)N[C@@H](CC(=O)O)C(=O)N[C@@H](C(C)C)C(=O)N(C)[C@@H](Cc2ccccc2)C(=O)N[C@@H](CC(=O)O)C(=O)N2C[C@H](O)C[C@@H]2C(=O)N[C@@H](Cc2c[nH]c3ccccc23)C(=O)N[C@@H](Cc2ccc(O)cc2)C(=O)N[C@@H](CCCN)C(=O)N[C@H](C(=O)NCC(N)=O)CSCC(=O)N[C@@H](Cc2cc(F)c(F)c(F)c2)C(=O)N(C)[C@@H](Cc2ccccc2)C(=O)N1C [Example 9346] ({CH2CO}-[Phe(3,4,5-F3)][NMeF][NMeNle][d(cisHyp)]DV[NMeF]D[d(cisHyp)]WY[Orn]CG-NH2; thioether N-13) | 1 to 9.9 nM | – |
| CCCC[C@H]1C(=O)N2C[C@H](O)C[C@@H]2C(=O)N[C@@H](CC(=O)O)C(=O)N[C@@H](C(C)C)C(=O)N(C)[C@@H](Cc2ccccc2)C(=O)N[C@@H](CC(=O)O)C(=O)N2C[C@H](O)C[C@@H]2C(=O)N[C@@H](Cc2c[nH]c3ccccc23)C(=O)N[C@@H](Cc2ccc(O)cc2)C(=O)N[C@@H](CCN)C(=O)N[C@H](C(=O)NCC(N)=O)CSCC(=O)N[C@@H](Cc2cc(F)c(F)c(F)c2)C(=O)N(C)[C@@H](Cc2ccccc2)C(=O)N1C [Example 9347] ({CH2CO}-[Phe(3,4,5-F3)][NMeF][NMeNle][d(cisHyp)]DV[NMeF]D[d(cisHyp)]WY[Dab]CG-NH2; thioether N-13) | – | 10.9 nM |
| CCCC[C@H]1C(=O)N2C[C@H](O)C[C@@H]2C(=O)N[C@@H](CC(=O)O)C(=O)N[C@@H](C(C)C)C(=O)N(C)[C@@H](Cc2ccccc2)C(=O)N[C@@H](CC(=O)O)C(=O)N2C[C@H](O)C[C@@H]2C(=O)N[C@@H](Cc2c[nH]c3ccccc23)C(=O)N[C@@H](Cc2ccc(O)cc2)C(=O)N[C@@H](CN)C(=O)N[C@H](C(=O)NCC(N)=O)CSCC(=O)N[C@@H](Cc2cc(F)c(F)c(F)c2)C(=O)N(C)[C@@H](Cc2ccccc2)C(=O)N1C [Example 9348] ({CH2CO}-[Phe(3,4,5-F3)][NMeF][NMeNle][d(cisHyp)]DV[NMeF]D[d(cisHyp)]WY[Dap]CG-NH2; thioether N-13) | 10 to 99.9 nM | – |
| CCCC[C@H]1C(=O)N2C[C@H](O)C[C@@H]2C(=O)N[C@@H](CC(=O)O)C(=O)N[C@@H](C(C)C)C(=O)N(C)[C@@H](Cc2ccccc2)C(=O)N[C@@H](CC(=O)O)C(=O)N2C[C@H](O)C[C@@H]2C(=O)N[C@@H](Cc2c[nH]c3ccccc23)C(=O)N[C@@H](Cc2ccc(O)cc2)C(=O)N[C@@H](CCC(=O)O)C(=O)N[C@H](C(=O)NCC(N)=O)CSCC(=O)N[C@@H](Cc2cc(F)c(F)c(F)c2)C(=O)N(C)[C@@H](Cc2ccccc2)C(=O)N1C [Example 9349] ({CH2CO}-[Phe(3,4,5-F3)][NMeF][NMeNle][d(cisHyp)]DV[NMeF]D[d(cisHyp)]WYECG-NH2; thioether N-13) | 10 to 99.9 nM | – |
| CCCC[C@H]1C(=O)N2C[C@H](O)C[C@@H]2C(=O)N[C@@H](CC(=O)O)C(=O)N[C@@H](C(C)C)C(=O)N(C)[C@@H](Cc2ccccc2)C(=O)N[C@@H](CC(=O)O)C(=O)N2C[C@H](O)C[C@@H]2C(=O)N[C@@H](Cc2c[nH]c3ccccc23)C(=O)N[C@@H](Cc2ccc(O)cc2)C(=O)N[C@@H](CC(=O)O)C(=O)N[C@H](C(=O)NCC(N)=O)CSCC(=O)N[C@@H](Cc2cc(F)c(F)c(F)c2)C(=O)N(C)[C@@H](Cc2ccccc2)C(=O)N1C [Example 9350] ({CH2CO}-[Phe(3,4,5-F3)][NMeF][NMeNle][d(cisHyp)]DV[NMeF]D[d(cisHyp)]WYDCG-NH2; thioether N-13) | 10 to 99.9 nM | – |
